Measured values reported in paper PMC11758220, “Identification of a Privileged Scaffold for Inhibition of Sterol Transport Proteins through the Synthesis and Ring Distortion of Diverse, Pseudo-Natural Products” (ACS Central Science, 2025).

How the values were obtained:
[1] = molecular target: T1, Aster-A (Homo sapiens, UniProt Q96CP6); assay: Fluorescence polarisation (FP) competition with NBD-cholesterol, Aster-A; type: binding; conditions: for Aster-A (FP) inhibition / inhibition at 10 µM: single dose, Dose = 10 µM; for IC50: mean of three experiments run in technical duplicates
T1 construct: Aster-A(359-547); GST (PreScission-cleavable) (N, cleaved yes); made in house; host or cells: E. coli OverExpress C41
T1 sequence (Q96CP6 359-547): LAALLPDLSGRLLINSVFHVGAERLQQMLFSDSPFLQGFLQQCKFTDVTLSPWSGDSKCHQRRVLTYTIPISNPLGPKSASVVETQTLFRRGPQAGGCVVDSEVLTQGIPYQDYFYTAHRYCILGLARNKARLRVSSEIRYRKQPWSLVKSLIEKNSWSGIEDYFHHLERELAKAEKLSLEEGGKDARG
Excerpt: (§1) Protein expression constructs
(§2) Human ASTER domains of Aster-A(359-547), -B(364-552) and -C(318-504) were subcloned into a pGEX-6p-2rbs vector, thus introducing the cloning artifact ‘GPLGS’.3 The pGEX-6P-1-GST-OSBP(377- […]
(§3) a gift from James H. Hurley (University of California).4 The pHIS_2His6_Thrombin_STARD4(2-205;C75S) plasmid was a gift from Young Jun Im (Chonnam National University).5 STARD5A was a gift from Nicola Burgess-Brown (Addgene plasmid #42392; http://n2t.net/addgene:42392; […]
(§4) Protein expression and purification […]
(§5) vectors including an N-terminal PreScission-cleavable glutathione S-transferase (GST)-tag were expressed in Escherichia coli (E. coli) OverExpress C41 in Terrific Broth (TB) medium for 16 h at 18 °C after the induction with 0.1 mM isopropyl β-D-1-thiogalactopyranoside (IPTG). Cells were harvested at 3500 × g for 15 minutes and lysed by sonication in buffer containing 50 mM HEPES pH 7.5, 300 mM NaCl, 10 %v/v glycerol, 5 mM dithiothreitol (DTT), 0.1 %v/v Triton X-100 and protease inhibitor mix HP plus (Serva). The lysate was purified by affinity chromatography on a GSTrap FF column (Cytiva) using an ÄKTA Start (Cytiva) in buffer containing 50 mM HEPES pH 7.5, 300 mM NaCl, 10 %v/v glycerol, 5 mM DTT and 0.01 %v/v Triton X-100. The GST-tag was cleaved overnight on the column at 4 °C. The Aster sterol binding domains were further purified by size-exclusion chromatography (SEC) on a HiLoad 16/600 Superdex 75 pg (Cytiva) in buffer containing 20 mM HEPES pH 7.5, 300 mM NaCl, 10 %v/v […]
(§6) STARD5(6-213) harboring an N-terminal His6-Tag were expressed in E. coli BL21(DE3) in Luria-Bertani Broth (LB) medium for approximately 16 h at 18 °C after induction with 0.15 mM IPTG. Cells were harvested at 3500 × g for 15 minutes and lysed by sonication in buffer containing 50 mM HEPES pH 7.5, 150 mM NaCl, 5 %v/v glycerol, 5 mM DTT, 0.1 %v/v Triton X -100 and ethylenediaminetetraacetic acid (EDTA)-free protease inhibitor cocktail (Sigma-Aldrich). The cleared lysate was purified by affinity chromatography on a Ni-NTA Superflow Cartridge (Qiagen) using an ÄKTA Start (Cytiva) in buffer containing 50 mM HEPES pH 7.5, 150 mM NaCl, 5 %v/v glycerol, 5 mM DTT. START domains were eluted by using elution buffer containing 50 mM HEPES pH 7.5, 150 mM NaCl, 5 %v/v glycerol, 5 mM DTT and 500 mM imidazole. Proteins were further purified by SEC on a HiLoad 16/600 Superdex 75 pg (Cytiva) in buffer containing 20 mM HEPES pH 7.5, 150 mM NaCl, 5 %v/v glycerol and 2 mM DTT.
(§7) The ORP domain of human OSBP(377-807) in the pGEX-6p-1 vector with an N-terminal PreScission-cleavable GST-tag was expressed in E. coli OverExpress C41 in LB medium for 16 h at 18 °C after induction with 0.1 mM IPTG. Cells were harvested at 3500 × g for 15 minutes and lysed by sonication in buffer containing 20 mM HEPES pH 7.5, 300 mM NaCl, 10 %v/v glycerol, 5 mM DTT, 0.1 %v/v Triton X-100 and EDTA-free protease inhibitor cocktail (Sigma-Aldrich). The cleared lysate was purified by affinity chromatography on a GSTrap HF column (Cytiva) using an ÄKTA Start (Cytiva) in buffer containing 20 mM HEPES pH 7.5, 300 mM NaCl, 10 %v/v glycerol, 5 mM DTT. OSBP(377 -807) was eluted by using elution buffer containing 20 mM HEPES pH 7.5, 300 mM NaCl, 10 %v/v glycerol, 5 mM DTT and 10 mM reduced glutathione. Proteins were further purified by SEC on a HiLoad 16/600 Superdex 75 pg (Cytiva) using an ÄKTA Explorer (Cytiva) in buffer containing 20 mM HEPES pH 7.5, 150 mM NaCl, 10 %v/v glycerol and 2 mM DTT.
(§8) The ORP domains of human ORP1(534-950) in pET24b(+) and ORP2(49-480) in the pET24b(+) vector including an N-terminal His6-Tag were expressed in E. coli BL21(DE3) in TB medium for approximately 16 h at 18 °C after induction with 0.1 mM IPTG. Cells were collected at 3500 × g for 15 minutes and lysed by sonification in buffer containing 10 mM Tris-HCl pH 8, 300 mM NaCl, 5 % glycerol, 2 mM DTT, 0.1 % Triton X-100 and EDTA-free protease inhibitor cocktail (Sigma-Aldrich). The cleared […]

[2] = molecular target: T2, Aster-B (Homo sapiens, UniProt Q3KR37); assay: Fluorescence polarisation (FP) competition with NBD-cholesterol, Aster-B; type: binding; conditions: for Aster-B (FP) inhibition / inhibition at 10 µM: single dose, Dose = 10 µM; for IC50: mean of three experiments run in technical duplicates
T2 construct: -B(364-552); GST (PreScission-cleavable) (N, cleaved yes); made in house; host or cells: E. coli OverExpress C41
T2 sequence (Q3KR37 364-552): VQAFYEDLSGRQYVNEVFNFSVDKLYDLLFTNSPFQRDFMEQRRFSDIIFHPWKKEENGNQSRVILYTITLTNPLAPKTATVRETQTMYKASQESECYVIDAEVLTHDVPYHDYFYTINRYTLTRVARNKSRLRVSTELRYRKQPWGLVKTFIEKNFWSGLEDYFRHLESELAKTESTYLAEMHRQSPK
Excerpt: as §1, §2, §3, §4, §5, §6, §7, §8

Compound	Aster-A (FP) inhibition [1]	Aster-B (FP) inhibition [2]	inhibition at 10 µM [1]	inhibition at 10 µM [2]	IC50 [1]	IC50 [2]
C[C@]12CC[C@@H](O)C[C@H]1CCc1nc3cc(Br)c(Br)cc3nc12 [Compound 7e]	-1%	12%				
C[C@]12CC[C@@H](O)C[C@H]1CCc1sc(N)nc12 [Compound 8a]			-1%	3.33%		
Cc1nc2c(s1)CC[C@@H]1C[C@H](O)CC[C@]21C [Compound 8b]	-1%	7.5%				
C[C@]12CC[C@@H](O)C[C@H]1CCc1sc(-c3cccnc3)nc12 [Compound 8c]	0%	7%				
COc1ccc(-c2nc3c(s2)CC[C@@H]2C[C@H](O)CC[C@]32C)cc1 [Compound 8d]			-1%	6%		
C[C@]12CC[C@@H](O)C[C@H]1CCc1sc(-c3ccc(F)cc3)nc12 [Compound 8e]	-3%	8%				
C[C@]12CC[C@@H](O)C[C@H]1CCc1[nH]c(-c3ccccc3)nc12 [Compound 9]			-2%	9%		
C[C@]12CC[C@@H](O)C[C@H]1CCc1c2[nH]c2ccccc12 [Compound 10a]	1%	7.5%				
C[C@]12CC[C@@H](O)C[C@H]1CCc1c2[nH]c2ccc(Br)cc12 [Compound 10b]	-9%	-2.5%				
C[C@]12CC[C@@H](O)C[C@H]1CCc1c2[nH]c2ccc(Cl)cc12 [Compound 10c]	1%	-5%				
C[C@]12CC[C@@H](O)C[C@H]1CCc1c2[nH]c2ccc(F)cc12 [Compound 10d]	-8%	0.833%				
Cc1ccc2[nH]c3c(c2c1)CC[C@@H]1C[C@H](O)CC[C@]31C [Compound 10e]			-4%	1.67%		
COc1ccc2[nH]c3c(c2c1)CC[C@@H]1C[C@H](O)CC[C@]31C [Compound 10f]			0%	13%		
CC12CCC(O)CC1CCc1c2[nH]c2ccc(C(F)(F)F)cc12 (stereo not shown) [Compound 10g]			-8%	-2.5%		
C[C@]12CC[C@@H](O)C[C@H]1CCc1c2[nH]c2ccc(I)cc12 [Compound 10h]	7%	32%				
C[C@]12CC[C@@H](O)C[C@H]1CCc1c2[nH]c2c(F)cc(Cl)cc12 [Compound 10i]			-8%	-4%		
Cc1cc(C)c2c3c([nH]c2c1)[C@@]1(C)CC[C@@H](O)C[C@H]1CC3 [Compound 10j]			-2%	16%		
CCOC(=O)c1ccc2[nH]c3c(c2c1)CC[C@@H]1C[C@H](O)CC[C@]31C [Compound 10k]	1%	-4%				

Compound	Aster-A (FP) inhibition [1]	Aster-B (FP) inhibition [2]	inhibition at 10 µM [1]	inhibition at 10 µM [2]	IC50 [1]	IC50 [2]
C[C@]12CC[C@@H](O)C[C@H]1CCC(=O)c1ccccc1NC2=O [Compound 11a]	-1%	10%				
C[C@]12CC[C@@H](O)C[C@H]1CCC(=O)c1cc(Br)ccc1NC2=O [Compound 11b]			1%	7.5%		
Cc1ccc2c(c1)C(=O)CC[C@@H]1C[C@H](O)CC[C@]1(C)C(=O)N2 [Compound 11c]			-4%	6%		
COc1ccc2c(c1)C(=O)CC[C@@H]1C[C@H](O)CC[C@]1(C)C(=O)N2 [Compound 11d]			-1%	4%		
C[C@]12CC[C@@H](O)C[C@H]1CCC(=O)c1cc(C(F)(F)F)ccc1NC2=O [Compound 11e]			-2%	7%		
C[C@]12CC[C@@H](O)C[C@H]1CCC(=O)c1cc(Cl)cc(F)c1NC2=O [Compound 11f]	-1%	11%				
Cc1cc(C)c2c(c1)NC(=O)[C@@]1(C)CC[C@@H](O)C[C@H]1CCC2=O [Compound 11g]			0%	11%		
Cc1ccc2[nH]c3c(c(=O)c2c1)C[C@@H]1C[C@H](O)CC[C@]31C [Compound 12]			-1%	11%		
Cc1ccc2c(c1)[C@]1(O)CC[C@@H]3C[C@H](O)CC[C@]3(C)C1=N2 [Compound 14a]			3%	12%		
COc1ccc2c(c1)[C@]1(O)CC[C@@H]3C[C@H](O)CC[C@]3(C)C1=N2 [Compound 14b]			8%	17%		
Cc1cc(C)c2c(c1)N=C1[C@@]2(O)CC[C@@H]2C[C@H](O)CC[C@]12C [Compound 14c]			2%	17%		
C[C@]12CC[C@@H]3C[C@H]1CC[C@@]21C(=Nc2ccccc21)O3 [Compound 15a]			43%	13%	7.17 µM	> 80 µM
CC12CCC3CC1CCC21C(=Nc2ccc(Cl)cc21)O3 (stereo not shown) [Compound 15c]			50%	12%	4.59 µM	> 80 µM
C[C@]12CC[C@@H]3C[C@H]1CC[C@@]21C(=Nc2ccc(F)cc21)O3 [Compound 15d]			25%	11%	12.5 µM	> 80 µM
Cc1ccc2c(c1)[C@@]13CC[C@@H]4C[C@@H](CC[C@@]41C)OC3=N2 [Compound 15e]			45%	27%	6.03 µM	> 80 µM
COc1ccc2c(c1)[C@@]13CC[C@@H]4C[C@@H](CC[C@@]41C)OC3=N2 [Compound 15f]			51%	23%	5.06 µM	> 80 µM
C[C@]12CC[C@@H]3C[C@H]1CC[C@@]21C(=Nc2ccc(C(F)(F)F)cc21)O3 [Compound 15g]			79%	18%	1.6 µM	> 80 µM
